Source: patent publication US20180030483A1, “PROCESS FOR PRODUCTION OF BIO-ALCOHOL” (DANISCO US INC., priority 2015, published 2018)
Read-outs that look alike come from different tables or passages of the source.

Assays:
Saccharomyces cerevisiae [1] = details: molasses media, 0 to 1000 ppm, 3 g active dry yeast, 32° C.
Protocol: Molasses Medium: The media was prepared by diluting 333 g molasses with water to final weight of 1000 g (w/w). To this 400 mg of urea was added as nitrogen source.
Saccharomyces cerevisiae was used in the form of active dry yeast at a concentration of 3% w/v or was pre-cultured by adding 6 g of active dry yeast into 100 ml YEGM in 250 ml Erlenmeyer's flask. The cultures were incubated at 32° C.±2° C. with mixing at 100 to 200 rpm to a final OD660 of 100±10. This culture was subsequently used as an inoculum for further fermentation studies at a concentration of 6% v/v.
The composition of the reaction products was measured by high pressure liquid chromatographic method (Agilent Isocratic system 1200, USA with RI detector) by injecting 20 μL of appropriately diluted samples onto a Aminex Column HPX-87H (catalogue number 1250140, Bio-Rad) maintained at 60° C. using 0.01N sulphuric acid as a mobile phase at a flow rate of 0.7 mL/min. The detection was carried out using Refractive index detector (RID).
Fermentation was carried out at 32° C.±2° C. in incubator shaker at 100-200 rpm. The fermentation was carried out until glucose value observed was less than 0.1% w/v. Thereafter, the samples were analysed for alcohol, organic acids, and glycerol profile by HPLC.
Batch fermentation was initiated by addition of sodium benzoate at a concentration ranging from 0 to 1000 ppm followed by 3 g of active dry yeast into 100 ml molasses media in 250 mL Erlenmeyer flasks. Fermentation was carried out in incubator shaker at 32° C.±2° C. at 100 to 200 rpm. Thereafter, the samples were analysed for alcohol, organic acids, and glycerol profile by HPLC.
Fermentation was carried out at 32° C.±2° C. in incubator shaker at 100 to 200 rpm. The fermentation was carried out until glucose value observed was less than 0.1% w/v. Thereafter, the samples were analysed for alcohol, organic acids, and glycerol profile by HPLC.

Saccharomyces cerevisiae [2] = experiment: Batch yeast fermentation in YEGM medium with added organic acid salt; type: cell-based; details: increasing concentration 0 to 1000 ppm; for increase in ethanol production: 32° C., until glucose less than 0.1% w/v; for yeast growth: biomass by OD660
Protocol: Yeast Extract Glucose media (YEGM): YEGM was prepared by dissolving 0.75 g Yeast Extract and 10 g dextrose dissolved in 100 ml tap water with pH in range […]. The media was then sterilized at 121° C. for 20 min.
The yeast biomass was measured using UV-Vis spectrophotometers (Shimadzu UV-1800) by diluting with YEGM to an OD660 in range of 0.2 to 0.8 with Milli-Q water.
Thereafter, the samples were analysed for alcohol and glycerol profile by HPLC and yeast biomass by UV Spectrophotometer.

SMILES: C/C=C/C=C/C(=O)[O-].[K+] [potassium sorbate]
- acetic acid yield (Saccharomyces cerevisiae [1]): reduced
- ethanol production (Saccharomyces cerevisiae [1]): increased
- glycerol yield (Saccharomyces cerevisiae [1]): reduced
- glycerol yield (Saccharomyces cerevisiae [2]): reduced
- increase in ethanol production (Saccharomyces cerevisiae [2]): ≥ 6%
- yeast growth (Saccharomyces cerevisiae [2]): reduced

SMILES: O=C([O-])c1ccccc1.[Na+] [sodium benzoate]
- ethanol production (Saccharomyces cerevisiae [1]): increased
- glycerol yield (Saccharomyces cerevisiae [1]): reduced
- glycerol yield (Saccharomyces cerevisiae [2]): reduced
- increase in ethanol production (Saccharomyces cerevisiae [2]): ≥ 6%
- yeast growth (Saccharomyces cerevisiae [2]): reduced
